Data from US6936636B2, “5-[phenyl-tetrahydronaphthalene-2-yl dihydronaphthalen-2-yl and heteroaryl-cyclopropyl]-pentadienoic acid derivatives having serum glucose reducing activity” (Allergan, Inc., priority 2003, dated 2005).

Legend:
[1] = target: T1, RXRα (Homo sapiens, UniProt P19793); assay: RXR ligand binding assay
T1 construct: expressed in transfected cells
T1 sequence (P19793 1-462): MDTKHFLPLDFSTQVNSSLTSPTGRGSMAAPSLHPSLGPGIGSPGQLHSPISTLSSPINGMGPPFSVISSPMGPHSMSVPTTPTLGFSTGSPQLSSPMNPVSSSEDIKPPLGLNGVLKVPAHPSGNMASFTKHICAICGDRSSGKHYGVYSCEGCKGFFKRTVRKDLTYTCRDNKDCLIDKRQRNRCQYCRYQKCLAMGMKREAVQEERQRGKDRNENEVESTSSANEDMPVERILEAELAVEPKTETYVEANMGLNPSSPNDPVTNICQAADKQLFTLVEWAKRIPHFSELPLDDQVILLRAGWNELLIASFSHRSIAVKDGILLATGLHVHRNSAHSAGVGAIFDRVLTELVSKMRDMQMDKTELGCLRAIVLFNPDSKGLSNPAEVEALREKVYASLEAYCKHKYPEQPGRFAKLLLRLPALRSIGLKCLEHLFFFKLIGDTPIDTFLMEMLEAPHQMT
Text: (§1) A holoreceptor transactivation assay and a ligand binding assay which measure the antagonist/agonist like activity of the compounds of the invention, or their ability to bind to the several retinoid receptor subtypes, respectively, are described in published PCT Application No. WO WO93/11755 (particularly on pages 30-33 and 37-41) published on Jun. 24, 1993, the specification of which is also incorporated herein by reference. A detailed experimental procedure for holoreceptor transactivations has been described by Heyman et al. Cell 68, 397-406, (1992); Allegretto et al. J. Biol. Chem. 268, 26625-26633, and Mangelsdorf et al. The Retinoids: Biology, Chemistry and Medicine, pp 319-349, Raven Press Ltd., New York, which are expressly incorporated herein by reference. The results obtained in this assay are expressed in EC50 numbers, as they are also in the, chimeric receptor transactivation assay. The results of the ligand binding assay are expressed in Ki numbers. (See Cheng et al. Biochemical Pharmacology Vol. 22 pp 3099-3108, expressly incorporated herein by reference.)
(§2) In Tables 1 and 2 the binding Ki numbers are indicated in the first 3 columns. In the second set of three columns the numbers in parentheses indicate efficacy as a percentage compared to the standard compound, (2E, 4E, 1′S, 2′S)-3-methyl-5-[2′-methyl-2′-(5,5,8,8-tetramethyl-5,6,7,8-tetrahydro-naphthalen-2-yl)-cyclopropyl]-penta-2,4-dienoic acid and the other numbers indicate the measured EC50 in nanomolar concentration.

[2] = target: T2, RXRβ (Homo sapiens, UniProt P28702); assay: RXR ligand binding assay
T2 construct: expressed in transfected cells
T2 sequence (P28702 1-533): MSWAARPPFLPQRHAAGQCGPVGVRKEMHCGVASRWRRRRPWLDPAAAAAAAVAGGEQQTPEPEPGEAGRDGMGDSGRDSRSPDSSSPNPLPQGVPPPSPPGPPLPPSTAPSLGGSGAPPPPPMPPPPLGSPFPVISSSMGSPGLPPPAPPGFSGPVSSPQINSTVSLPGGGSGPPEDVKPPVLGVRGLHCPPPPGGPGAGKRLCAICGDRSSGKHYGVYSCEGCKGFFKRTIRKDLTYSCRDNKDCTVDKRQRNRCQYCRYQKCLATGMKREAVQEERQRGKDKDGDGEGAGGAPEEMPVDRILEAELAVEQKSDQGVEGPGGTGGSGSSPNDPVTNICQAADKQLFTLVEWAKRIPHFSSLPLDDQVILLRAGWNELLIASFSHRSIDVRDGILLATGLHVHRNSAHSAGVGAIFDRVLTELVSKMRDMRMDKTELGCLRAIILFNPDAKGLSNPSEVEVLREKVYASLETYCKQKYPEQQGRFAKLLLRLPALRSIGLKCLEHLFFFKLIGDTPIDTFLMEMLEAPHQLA
Text: as §1, §2

[3] = target: T1, RXRα; assay: holoreceptor transactivation assay; type: cell-based; settings: for Transactivation % Efficiency RXRα: efficacy as percentage compared to the standard compound; for EC50: holoreceptor assay
Text: as §1
(§3) Efficacy in a transactivation assay is expressed as a percentage of the maximum potency attained by the compound compared to a standard which, in this, case, is the compound named (2E, 4E, 1′S, 2′S)-3-methyl-5-[2′-methyl-2′-(5,5,8,8-tetramethyl-5,6,7,8-tetrahydro-naphthalen-2-yl)-cyclopropyl]-penta-2,4-dienoic acid. This standard compound is described in U.S. Pat. No. 6,114,533.
(§4) Table 1 discloses the activity of certain exemplary tetrahydronaphthale compounds of the invention in the above-described RXR receptor transactivation and binding assays. […] The transactivation data pertaining to the activation of RXR receptors were obtained in the holoreceptor assay.
as §2

[4] = target: T2, RXRβ; assay: holoreceptor transactivation assay; type: cell-based; settings: for Transactivation % Efficiency RXRβ: efficacy as percentage compared to the standard compound; for EC50: holoreceptor assay
Text: as §1, §3, §4, §2

[5] = target: T3, RXRγ (Homo sapiens, UniProt P48443); assay: holoreceptor transactivation assay; type: cell-based; settings: for Transactivation % Efficiency RXRγ: efficacy as percentage compared to the standard compound; for EC50: holoreceptor assay
T3 construct: expressed in transfected cells
T3 sequence (P48443 1-463): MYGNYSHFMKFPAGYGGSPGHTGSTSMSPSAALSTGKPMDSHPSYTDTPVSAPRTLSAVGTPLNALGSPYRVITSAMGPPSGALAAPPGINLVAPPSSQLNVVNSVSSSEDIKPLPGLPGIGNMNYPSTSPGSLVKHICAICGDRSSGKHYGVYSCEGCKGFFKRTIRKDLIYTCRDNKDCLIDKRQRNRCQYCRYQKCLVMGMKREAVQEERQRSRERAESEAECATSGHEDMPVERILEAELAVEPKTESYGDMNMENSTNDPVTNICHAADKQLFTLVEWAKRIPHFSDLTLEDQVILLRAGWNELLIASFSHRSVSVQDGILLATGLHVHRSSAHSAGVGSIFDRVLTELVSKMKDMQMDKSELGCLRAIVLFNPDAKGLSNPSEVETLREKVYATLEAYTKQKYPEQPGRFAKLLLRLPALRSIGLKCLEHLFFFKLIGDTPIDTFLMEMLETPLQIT
Text: as §1, §3, §4, §2

[6] = tested on: female diabetic db/db mice; assay: serum glucose, triglyceride and thyroxine levels in diabetic db/db mice; type: in vivo; settings: for Glucose / Triglycerides / T4: db/db mice; for T4: Day 7
Text: An assay described below tests the effect of compounds of the invention on serum glucose, tryglyceride and thyroxine levels in female 9-10 weeks old db/db mice.
Female diabetic db/db (9-10 weeks old) mice were maintained on standard laboratory food and treated by oral gavage with vehicle (corn oil), standard compound (2E, 4E, 1′S, 2S)-3-methyl-5-[2′-methyl-2′-(5,5,8,8-tetramethyl-5,6,7,8-tetrahydro-naphthalen-2-yl)-cyclopropyl]-penta-2,4-dienoic acid ([…]) daily for seven days at 8:00 AM. Blood samples (70 μl) were taken by orbital bleeding at 11:00 AM on day 0 (pre-treatment), day 3, and day 6. On day 7, a blood sample (700 μl) was taken at 11:00 AM and the animals were sacrificed. Glucose, triglyceride and thyroxine (T4) levels were determined on a Boehringer Manheim Hatachi Clinical Chemistry Analyzer using standard protocols provided by the manufacturer and reagents that were supplied in commercially available kits (glucose and T4: Boehringer Manheim; triglycerides: Roche Diagnostics). Seven animals were treated in each group.

[7] = Day 0 (pre-treatment), 50 mg/kg oral gavage daily
[8] = Day 3, 3 h, 50 mg/kg oral gavage daily
[9] = Day 6, 3 h, 50 mg/kg oral gavage daily
[10] = Day 0 (pre-treatment), 4 mg/kg oral gavage daily
[11] = Day 3, 3 h, 4 mg/kg oral gavage daily
[12] = Day 6, 3 h, 4 mg/kg oral gavage daily

Ki [1] | Ki [2] | Transactivation % Efficiency RXRα [3] | EC50 [3] | Transactivation % Efficiency RXRβ [4] | EC50 [4] | Transactivation % Efficiency RXRγ [5] | EC50 [5] | SMILES | also measured
5 nM | 48 nM | 39% | 4 nM | 38% | 36 nM | 41% | 6 nM | COC[C@H]1[C@@H](/C=C/C(C)=C/C(=O)O)[C@@]1(C)c1ccc2c(c1)C(C)(C)CCC2(C)C (stereo in doubt) [Compound 21a, (−)-(1R, 2S, 3 S)-5-[3-Methoxymethyl-2-methyl-2-(5,5,8,8-tetramethyl-5,6,7,8-tetrahydro-naphthalen-2-yl)-cyclopropyl]-3-methyl-penta-2E,4E-dienoic acid] | Glucose [6, 7]: 445 ± 66 mg/dL; Triglycerides [6, 7]: 271 ± 80 mg/dL; Glucose [6, 8]: 339 ± 194 mg/dL; Triglycerides [6, 8]: 130 ± 71 mg/dL; Glucose [6, 9]: 314 ± 196 mg/dL; Triglycerides [6, 9]: 180 ± 63 mg/dL; T4 ([6]; 50 mg/kg oral gavage daily): 4.2 ± 0.3 µg/dL
17 nM | 227 nM | 41% | 28 nM | – | > 1000 nM | 34% | 44 nM | CCOC[C@H]1[C@@H](/C=C/C(C)=C/C(=O)O)C1(C)c1ccc2c(c1)C(C)(C)CCC2(C)C (stereo in doubt) [Compound 21b, (−)-(1R, 2S, 3S)-5-[3-Ethoxymethyl-2-methyl-2-(5,5,8,8-tetramethyl-5,6,7,8-tetrahydro-naphthalen-2-yl)-cyclopropyl]-3-methyl-penta-2E,4E-dienoic acid] | –
18 nM | 188 nM | 9% | 27 nM | 9% | 546 nM | 9% | 60 nM | COC[C@@H]1[C@@H](/C=C/C(C)=C/C(=O)O)C1(C)c1ccc2c(c1)C(C)(C)CCC2(C)C (stereo in doubt) [Compound 23a, (−)-(1R, 2S, 3R)-5-[3-Methoxymethyl-2-methyl-2-(5,5,8,8-tetramethyl-5,6,7,8-tetrahydro-naphthalen-2-yl)-cyclopropyl]-3-methyl-penta-2E,4E-dienoic acid] | –
27 nM | 121 nM | – | – | – | – | – | – | CCOC[C@@H]1[C@@H](/C=C/C(C)=C/C(=O)O)C1(C)c1ccc2c(c1)C(C)(C)CCC2(C)C (stereo in doubt) [Compound 23b, (−)-(1R, 2S, 3R)-5-[3-Ethoxymethyl-2-methyl-2-(5,5,8,8-tetramethyl-5,6,7,8-tetrahydro-naphthalen-2-yl)-cyclopropyl]-3-methyl-penta-2E,4E-dienoic acid] | –
11 nM | 49 nM | 24% | 5 nM | 34% | 47 nM | 35% | 16 nM | COCC1[C@@H](/C=C/C(C)=C/C(=O)O)C1(C)c1cc(C(C)C)cc(C(C)C)c1 (stereo in doubt) [Compound 29, (−)-(1R, 2S, 3S)-5-[3-Methoxymethyl-2-methyl-2-(3,5-diisopropyl-phenyl)-cyclopropyl]-3-methyl-penta-2E,4E-dienoic acid] | –
7.6 nM | 25 nM | 104% | 2.7 nM | 90% | 17 nM | 101% | 3.6 nM | COCC1[C@@H](/C=C/C(C)=C/C(=O)O)C1(C)c1cc(C(C)C)cc(C(C)C)c1 (stereo in doubt) [Compound 31a, (−)-(1R, 2S, 3R)-5-[3-Methoxymethyl-2-methyl-2-(3,5-diisopropyl-phenyl)-cyclopropyl]-3-methyl-penta-2E,4E-dienoic acid] | –
– | – | – | – | – | – | – | – | CC(/C=C/[C@@H]1C[C@]1(C)c1ccc2c(c1)C(C)(C)CCC2(C)C)=C\C(=O)O [Standard compound, (2E, 4E, 1′S, 2′S)-3-methyl-5-[2′-methyl-2′-(5,5,8,8-tetramethyl-5,6,7,8-tetrahydro-naphthalen-2-yl)-cyclopropyl]-penta-2,4-dienoic acid] | Glucose [6, 10]: 423 ± 57 mg/dL; Triglycerides [6, 10]: 300 ± 76 mg/dL; Glucose [6, 11]: 315 ± 105 mg/dL; Triglycerides [6, 11]: 219 ± 80 mg/dL; Glucose [6, 12]: 268 ± 242 mg/dL; Triglycerides [6, 12]: 117 ± 22 mg/dL; T4 ([6]; 4 mg/kg oral gavage daily): 1.1 ± 0.2 µg/dL; effect on serum thyroxine levels (in words) ([6]; diabetic mammals): undesirable side effect of reducing serum thyroxine levels
